Measurements: US20030134859A1 (SANKYO COMPANY, LIMITED, priority 2000, published 2003)

System: ABCA1 mRNA
Assay: Quantitative analysis of ABCA1 mRNA (TaqMan PCR) in RAW264.7 cells
Assay type: cell-based, mouse
Conditions: 100 nM test compound, 24 hr, normalised to β-actin, DMSO = 100
Experimental: The mouse monocyte/macrophage cell line, RAW264.7 (ATCC TIB71) was purchased from Dainippon Pharmaceutical Co., Ltd. As the medium, the Dulbecco's modified Eagle's medium (DMEM medium; GIBCO, Cat. No. 11995-040) containing bovine fetal serum (the final concentration: 10% (v/v), MOREGATE, lot No. 474030), penicillin G (the final concentration: 50 units/mL, GIBCO) and streptomycin (the final concentration: 20 μg/mL, GIBCO) was used.
The culture of RAW264.7 cells was carried out in a CO2 incubator (37° C., 95% R.H., 5% of CO2).
A 2 ml volume of RAW264.7 cells suspension (1×10^6 cells/mL) was plated in each well of a 6-well plate (2×10^6 cells/well) and the cells were incubated for 2 hr in a CO2 incubator. The test compounds dissolved in DMSO were diluted with DMEM medium by 20 times, and were added to the wells at a volume of 4 μL/well (final concentration of the test compound: 100 nM). As the control, the DMSO solution was diluted with the DMEM medium by 20 times, and was added to the wells at the volume of 4 μL/well. After the cells were cultured in a CO2 incubator for 24 hr, the medium was removed and the total RNA was purified by using an RNeasy Mini Kit (Qiagen), according to the protocol attached. The concentration of the RNA in the samples obtained was calculated from absorbance at 260 nm (A260=1=40 μg/ml). Six (6) μg of total RNA were diluted with RNAase-free water so as to be 22.6 μL, which was heated at 65° C. for 10 min, and then was cooled on ice. The RNA in the solution was used as the template, and the cDNA was synthesized by using a First-strand cDNA Synthesis Kit (Amersham Pharmacia Biotech). In this reaction, a solution was prepared having the following composition and was reacted at 37° C. for 1 hr.
After the reaction, 3 μL of soution were collected from each of the reaction mixtures of the test compound-treated cell samples and that of the control cell samples. The mixed solution was used as the standard solution. The standard solution and each reaction solution were purified with a Chroma Spin-100+DEPC-H2O Column according to the protocol attached, and they were used as the template for TaqMan PCR (Template). In order to draw the calibration curve, the standard solution was diluted by every 5 times for 5 steps and each solution was used for TaqMan PCR. TaqMan PCR was carried out in ABCA1 and β-actin. As Primers for use in the TaqMan PCR, 4 oligonucleotides (abca1 forward (S3), abca1 reverse (AS3), β-actin forward (S4) and β-actin reverse (AS4)) were designed which are shown in sequences No. 5 to 8 in the sequence table described later. The synthesis and purification of these 4 oligomers was ordered from Amersham Pharmacia Biotech Co.
As FAM-TAMRA labelled TaqMan Probe, 2 kinds of oligonucleotides (abca1 (p1) and β-actin (p2)) were designed and were ordered from Applied Biosystems Co. to synthesize and purify.
The following reaction mixture of ABCA1 or β-actin was divided into 2 wells of a MicroAmp Optical 96-well Reaction Plate (Applied Biosystem Co.). TaqMan Universal PCR Master Mix was purchased from Applied Biosystem Co.
The plate was covered with a MicroAmp Optical Cap (Applied Biosystems Co.), and TaqMan PCR was carried out by using an ABI PRISM 7,700 Sequence Detection System (Applied Biosystem Co.) under the following conditions:
An analysis was made according to the procedures described in the manual of Sequence Detection Software (Applied Biosystem Co.) and the increased rate of ABCA1 mRNA due to the test compound was calculated based on the following equation.
A: Amount of the ABCA1 mRNA in the presence of the test compound
B: Amount of the β-actin mRNA in the presence of the test compound
C: Amount of the ABCA1 mRNA in the presence of DMSO
D: Amount of the β-actin mRNA in the presence of DMSO
Increase Rate (%) of ABCA1 mRNA=(A/B)/(C/D)×100

Row | Compound | Rate of Increase (%) of ABCA1 mRNA [%]
1 | CCCCCCCCN(CCCC)c1ccc(-c2ccc(NC(=O)c3cc([N+](=O)[O-])ccc3Cl)cc2)cc1.Cl [Example 223, N-[4-[4-(N-Butyl-N-octylamino)phenyl]phenyl]-(2-chloro-5-nitrophenyl)carboxamide mono-hydrochloride] | 204.0
2 | CCCCCCCCN(CCC)c1ccc(-c2ccc(NC(=O)c3cc([N+](=O)[O-])ccc3Cl)cc2)cc1 [Example 224, N-[4-[4-(N-Octyl-N-propylamino)phenyl]phenyl]-(2-chloro-5-nitrophenyl)carboxamide] | 179.0
3 | O=C(Nc1ccc(CCNC(=S)Nc2cccnc2)cc1)c1cc([N+](=O)[O-])ccc1Cl [Example 273, N-[4-[2-(Pyridin-3-yl)aminothiocarbonylaminoethyl]phenyl]-(2-chloro-5-nitrophenyl)carboxamide] | 146.0
